Assay results as given in US20260226094A1, “STEROL-BASED CATIONIC LIPIDS WITH AROMATIC HEAD GROUPS” (SANOFI, priority 2023, published 2026).

Columns and labels:
[1] = Lipid degradability by human lung S9 in vitro; type: in vitro ADME; settings: 2 μM lipid, 2.4 mg/ml lung S9, pH 7.4, 37° C.
Procedure: (§1) Lipid degradability by MOUSE/HUMAN lung S9 in vitro
(§2) Assay format—4 or 5 time points in triplicate.
(§3) • 1) Plan experiment, compounds, and reagents. • 2) Dissolve each lipid in DMSO or IPA to make 5 mM stock, then dilute by IPA to 200 μM work solution. • 3) Thaw mouse and human lung S9. • 4) Prepare pooled incubation mixture as in the reaction formulas below on ice. • 5) Aliquot 495 μL incubation mixture prepared in step #4 to each well of a 2 mL 96-well plate. • 6) Add 5 μL compound to each well to initiate the reaction. Take t0 samples (as in step #8). • 7) Cover the plate with 2 layers of breathable seals and incubate the plate on an orbital shaker at 150 rpm in a 37° C. CO2 incubator. • 8) At each time point, pipette to mix the incubation mixture 5 times, then take 70 μL of incubation mixture to a fresh plate. Store in −20° C. freezer immediately. • 9) Add 210 μL (3× volume) of the cold stop solution to each well of the sample plates collected. Mix at 600 rpm on an orbital shaker for 15 min. • 10) Centrifuge the quenched plates at 3800 rpm for 10 min at 4° C. and transfer supernatant to fresh plates. • 11) Load the supernatant on filter plates and centrifuge again at 3800 rpm for 5 min at 4° C. Collect final samples in fresh plates for LC/MS.
(§4) • 4-5 Time points (hour): e.g. 0, 4, 8, 24, 48 hr • stop solution: 1:1:1 ACN/MeOH/IPA (v/v/v) with propranolol & MC3 as internal standard. Store at 4° C.

mice = test: Delivery of FFL mRNA by intranasal administration, IVIS luminescent imaging; type: in vivo, mouse; settings: lipid nanoparticle with FFL mRNA, dose 10 μg/Animal, 24 hours post dose
Procedure: Lipid nanoparticle formulation 3 listed in Table 1 comprising FFL mRNA, cationic lipid, DMG-PEG2000, cholesterol and DOPE was administered in mice via pipetting the formulations at 10 μg/Animal and 15 μl per nostril. On Day 2, 24 hours post dose (±5%), all animals undergo a luminescent imaging session using IVIS with separate ROIs on the nose and lungs. Whole body imaging are performed 10-15 minutes following D-Luciferin administration. All animals are dosed with 0.2 mL of 15 mg/mL D-luciferin solution via intraperitoneal (IP) injection. Anesthesia performed by isoflurane during the procedure and animals will be placed sternal recumbency (face-down). […]

[2] = Lipid degradability by mouse lung S9 in vitro; type: in vitro ADME; settings: 2 μM lipid, 2.4 mg/ml lung S9, pH 7.4, 37° C.
Procedure: as §1, §2, §3, §4

male CD1 mice = test: Delivery of FFL mRNA by intratracheal administration, IVIS luciferase imaging of the lung; type: in vivo, mouse; settings: lipid nanoparticles with FFL mRNA, single intratracheal administration via catheter, about 24 hours post-dose
Procedure: Lipid nanoparticle formulations listed in Table 1 comprising FFL mRNA, cationic lipid, DMG-PEG2000, cholesterol and DOPE were administered to male CD1 mice (6-8 weeks old) by a single intratracheal administration via Catheter® ([…]) while under anesthesia. At approximately 24 hours post-dose, the animals were dosed with luciferin at 150 mg/kg (60 mg/ml) by intraperitoneal injection at 2.5 ml/kg. After 5-15 minutes, all animals were imaged using an IVIS imaging system to measure luciferase production in the lung.

| SMILES | In vitro degradation Human lung S9 [1] | FFLuc (Avr. Rad.) (mice) | In vitro degradation Mouse lung S9 [2] | in vivo FFL protein production (luciferase activity in the lung, FIG. 5) (male CD1 mice) |
| --- | --- | --- | --- | --- |
| COc1cc(C(=O)OCCCN(C)C)cc(OC)c1OC(=O)CCO[C@H]1CC[C@@]2(C)C(=CC[C@H]3[C@@H]4CC[C@H]([C@H](C)CCCC(C)C)[C@@]4(C)CC[C@@H]32)C1 [Compound II] | 38.2 h | 592,290 p/s/cm^2/sr | 39.3 h |  |
| COc1cc(C(=O)OCCNC(=N)N)cc(OC)c1OC(=O)CCO[C@H]1CC[C@@]2(C)C(=CC[C@H]3[C@@H]4CC[C@H]([C@H](C)CCCC(C)C)[C@@]4(C)CC[C@@H]32)C1 [Compound III] | 39.2 h | 890,880 p/s/cm^2/sr | 50.1 h | high levels of in vivo FFL protein production |
| COc1cc(C(=O)OCCN(C)C)cc(OC)c1OC(=O)CCC(=O)O[C@H]1CC[C@@]2(C)C(=CC[C@H]3[C@@H]4CC[C@H]([C@H](C)CCCC(C)C)[C@@]4(C)CC[C@@H]32)C1 [Compound I] | 22.2 h | 421,679 p/s/cm^2/sr | 23.6 h |  |
| COc1cc(C(=O)OCCCNC(=N)N)cc(OC)c1OC(=O)CCO[C@H]1CC[C@@]2(C)C(=CC[C@@H]3C2CC[C@]2(C)[C@@H]([C@H](C)CCCC(C)C)CC[C@@H]32)C1 (some centres unmarked) [Compound IV] | 62.9 h | 833,279 p/s/cm^2/sr | 69.6 h | high levels of in vivo FFL protein production |
